Values after ≈ are worked out from the molar mass of the structure shown. Blank lines part the entries; values can stand above or below the compound they belong to.
Experiments:
[1] = Aqueous solubility in pH 7.4 PBS buffer at 37 degC incubated for 24 hrs by HPLC method; assay type: physicochemical; settings: pH 7.4, 24 h
[2] = Aqueous solubility in pH 5.5 PBS buffer at 37 degC incubated for 24 hrs by HPLC method; assay type: physicochemical; settings: pH 5.5, 24 h
[3] = Selectivity index, ratio of IC50 for CHO cells to IC50 for chloroquine-susceptible Plasmodium falciparum D10; assay type: toxicity, cell-based; settings: hamster, read-out: Ratio IC50
[4] = Partition coefficient, log D of the compound using n-octanol/PBS buffer system at pH 5.5 by HPLC method; assay type: physicochemical
[5] = system: CHO; experiment: Cytotoxicity against CHO cells after 48 hrs by MTT assay; assay type: cell-based; settings: Cricetulus griseus
[6] = Solubility in octanol at pH 5.5; assay type: physicochemical; settings: buffer
[7] = Partition coefficient, log D of the compound using n-octanol/PBS buffer system at pH 7.4 by HPLC method; assay type: physicochemical
[8] = system: Plasmodium falciparum; experiment: Resistance index, ratio of IC50 for chloroquine-resistant Plasmodium falciparum Dd2 to IC50 for chloroquine-susceptible Plasmodium falciparum D10; assay type: functional
[9] = Solubility in octanol at pH 7.4; assay type: physicochemical
[10] = system: Plasmodium falciparum; experiment: Antimalarial activity against chloroquine-resistant Plasmodium falciparum Dd2 asexual erythrocyte forms after 48 hrs by parasite LDH assay; assay type: functional, organism-based; settings: Dd2, 48 h
[11] = system: Plasmodium falciparum; experiment: microbe, parasite or virus in culture; settings: D10, 48 h
[12] = Dissociation constant, pKa of the compound at pH 7.4
[13] = n-octanol/PBS buffer, read-out: logD

Structure (SMILES): Nc1cc(OCCNc2ccnc3cc(Cl)ccc23)nc(N)n1
solubility [1]: 0.23 µM (≈ 0.0761 µg/mL)
solubility [2]: 0.3 µM (≈ 0.0992 µg/mL)
selectivity ratio [3]: 764
logD [4, 13]: -0.3
IC50 [5]: 174000 nM
solubility [6]: 0.15 µM (≈ 0.0496 µg/mL)
logD [7, 13]: 0.9
Ratio IC50 [8]: 2.6
solubility [9]: 1.84 µM (≈ 0.609 µg/mL)
IC50 [10]: 580 nM
IC50 [11]: 230 nM

Structure (SMILES): CC(COc1cc(N)nc(N)n1)Nc1ccnc2cc(Cl)ccc12 (stereo unspecified)
solubility [1]: 0.25 µM (≈ 0.0862 µg/mL)
solubility [2]: 1.45 µM (≈ 0.5 µg/mL)
selectivity ratio [3]: 1030
logD [4, 13]: -1.34
IC50 [5]: 250000 nM
solubility [6]: 0.07 µM (≈ 0.0241 µg/mL)
logD [7, 13]: 0.92
Ratio IC50 [8]: 2.3
solubility [9]: 2.14 µM (≈ 0.738 µg/mL)
IC50 [10]: 543 nM
IC50 [11]: 243 nM

Structure (SMILES): Nc1cc(OCCCNc2ccnc3cc(Cl)ccc23)nc(N)n1
solubility [1]: 0.12 µM (≈ 0.0414 µg/mL)
solubility [2]: 0.31 µM (≈ 0.107 µg/mL)
selectivity ratio [3]: 494
logD [4, 13]: -0.08
IC50 [5]: 107000 nM
solubility [6]: 0.25 µM (≈ 0.0862 µg/mL)
logD [7, 13]: 1.01
Ratio IC50 [8]: 2.2
solubility [9]: 1.2 µM (≈ 0.414 µg/mL)
IC50 [10]: 467 nM
IC50 [11]: 217 nM

Structure (SMILES): Nc1cc(OCCOCCNc2ccnc3cc(Cl)ccc23)nc(N)n1
solubility [1]: 0.84 µM (≈ 0.315 µg/mL)
solubility [2]: 1.17 µM (≈ 0.439 µg/mL)
selectivity ratio [3]: 303
logD [4, 13]: -0.29
IC50 [5]: 250000 nM
solubility [6]: 0.6 µM (≈ 0.225 µg/mL)
logD [7, 13]: -0.28
Ratio IC50 [8]: 5
solubility [9]: 0.44 µM (≈ 0.165 µg/mL)
IC50 [10]: 4100 nM
IC50 [11]: 837 nM

Structure (SMILES): CCC(COc1cc(N)nc(N)n1)Nc1ccnc2cc(Cl)ccc12 (stereo unspecified)
solubility [1]: 0.02 µM (≈ 0.00718 µg/mL)
solubility [2]: 0.04 µM (≈ 0.0144 µg/mL)
selectivity ratio [3]: 995
logD [4, 13]: 1.07
IC50 [5]: 156000 nM
solubility [6]: 0.49 µM (≈ 0.176 µg/mL)
logD [7, 13]: 2.47
Ratio IC50 [8]: 1.4
solubility [9]: 5.68 µM (≈ 2.04 µg/mL)
IC50 [10]: 210 nM
IC50 [11]: 157 nM

Structure (SMILES): Nc1cc(NCCNc2ccnc3cc(Cl)ccc23)nc(N)n1
solubility [1]: 0.12 µM (≈ 0.0396 µg/mL)
solubility [2]: 0.52 µM (≈ 0.171 µg/mL)
selectivity ratio [3]: 607
logD [4, 13]: -0.07
IC50 [5]: 190000 nM
solubility [6]: 0.45 µM (≈ 0.148 µg/mL)
logD [7, 13]: 0.78
Ratio IC50 [8]: 3.2
solubility [9]: 0.72 µM (≈ 0.237 µg/mL)
IC50 [10]: 1020 nM
IC50 [11]: 317 nM

Structure (SMILES): Nc1cc(NCCCNc2ccnc3cc(Cl)ccc23)nc(N)n1
solubility [1]: 0.62 µM (≈ 0.213 µg/mL)
solubility [2]: 0.88 µM (≈ 0.303 µg/mL)
selectivity ratio [3]: 308
logD [4, 13]: -0.74
IC50 [5]: 255000 nM
solubility [6]: 0.16 µM (≈ 0.055 µg/mL)
logD [7, 13]: 0.11
Ratio IC50 [8]: 1.4
solubility [9]: 0.79 µM (≈ 0.272 µg/mL)
IC50 [10]: 1210 nM
IC50 [11]: 850 nM

Structure (SMILES): Nc1cc(NCCCCNc2ccnc3cc(Cl)ccc23)nc(N)n1
solubility [1]: 0.94 µM (≈ 0.336 µg/mL)
solubility [2]: 1.04 µM (≈ 0.372 µg/mL)
selectivity ratio [3]: 280
logD [4, 13]: -0.74
IC50 [5]: 162000 nM
solubility [6]: 0.19 µM (≈ 0.068 µg/mL)
logD [7, 13]: 0.49
Ratio IC50 [8]: 2.2
solubility [9]: 2.91 µM (≈ 1.04 µg/mL)
IC50 [10]: 1260 nM
IC50 [11]: 580 nM

Structure (SMILES): Nc1cc(Nc2ccc(Nc3ccnc4cc(Cl)ccc34)cc2)nc(N)n1
solubility [1]: ND(Insoluble)
solubility [2]: 0.01 µM (≈ 0.00378 µg/mL)
selectivity ratio [3]: 63
logD ([4]; octanol/water): ND(Insoluble)
IC50 [5]: 13800 nM
logD ([7]; octanol/water): ND(Insoluble)
Ratio IC50 [8]: 0.5
IC50 [10]: 107 nM
IC50 [11]: 220 nM

Structure (SMILES): Nc1cc(N2CCN(c3ccnc4cc(Cl)ccc34)CC2)nc(N)n1
solubility [1]: 0.01 µM (≈ 0.00356 µg/mL)
solubility [2]: 0.66 µM (≈ 0.235 µg/mL)
selectivity ratio [3]: 2070
logD [4, 13]: -0.99
IC50 [5]: 146000 nM
solubility [6]: 0.07 µM (≈ 0.0249 µg/mL)
logD ([7]; octanol/water): ND(Insoluble)
Ratio IC50 [8]: 2.4
IC50 [10]: 157 nM
IC50 [11]: 70 nM

Structure (SMILES): CC[C@H]1CN2CCc3cc(OC)c(OC)cc3[C@@H]2C[C@@H]1C[C@H]1NCCc2cc(OC)c(OC)cc21 [EMETINE]
IC50 [5]: 125000 nM

solubility [1]: 0.15 µM (≈ 0.0373 µg/mL)
solubility [2]: 1.16 µM (≈ 0.289 µg/mL)
logD [4, 13]: 0.76
solubility [6]: 6.67 µM (≈ 1.66 µg/mL)
pKa [12]: 7.36
logD [7, 13]: 1.93
solubility [9]: 12.8 µM (≈ 3.19 µg/mL)
IC50 [11]: 70 nM
Structure (SMILES): CCc1nc(N)nc(N)c1-c1ccc(Cl)cc1 [PYRIMETHAMINE]

Reference: ChEMBL document CHEMBL2311481, “Synthesis, characterization and antimalarial activity of quinoline-pyrimidine hybrids” (Bioorg Med Chem, 2013)
